A short description of this data set: Biodistribution studies in ICR white mice: percent of injected dose of Tc-99m complex in brain tissue. Format: in vivo. As to conditions: for % of Dose of Tc99m Complex in Brain, 5 min / % of Dose of Tc99m Complex in Brain, 10 min / % of Dose of Tc99m Complex in Brain, 15 min: ICR white mice, i.v. (tail), 0.5 to 2 microcuries, saline. The protocol: Biodistribution studies have been conducted with several complexes according to the present invention, in ICR white mice. A saline solution containing 0.5 to 2 microcuries of the Tc-99m complex was injected intravenously (tail), and the mice were sacrificed after 5, 10 or 15 minutes. The percent of the injected dose which was present in brain tissue was measured. […] On the other hand, the data reveal that the compounds containing the alkyl-amino group according to the present invention are retained in the brain for much longer times. For example, after 15 minutes, the concentration of compound 3 is 15 times that of compound 1.

The structures appear in SMILES notation.

As for `CC(C)NCCN(CCNCC(C)(C)S)CC(C)(C)S` [Compound 3], the “% of Dose of Tc99m Complex in Brain, 5 min” value (shortened to “% of Dose … in Brain, 5 min”) was 0.64 % of Dose; the “% of Dose of Tc99m Complex in Brain, 10 min” value is reported as 0.49 % of Dose; the “% of Dose of Tc99m Complex in Brain, 15 min” value (shortened to “% of Dose … 15 min”) is reported as 0.49 % of Dose. The “concentration in brain relative to that of compound 1” value (after 15 minutes, mice, i.v., relative to compound 1) turned out to be 15 times.
As to `CN(C)CCN(CCNCC(C)(C)S)CC(C)(C)S` [Compound 2], the “% of Dose … in Brain, 5 min” value is 0.89 % of Dose; the “% of Dose of Tc99m Complex in Brain, 10 min” value is 0.30 % of Dose; the “% of Dose … 15 min” value was 0.42 % of Dose.
In the same order, the values of `CC(C)(S)CNCCNCC(C)(C)S` [Compound 1, reference compound] are 1.02 % of Dose, 0.30 % of Dose and 0.03 % of Dose.
Turning to `CC(C)(S)CNC(C)(C)CN(CCN1CCCCC1)CC(C)(C)S` [Compound 9], the “% of Dose … in Brain, 5 min” value is recorded as 2.19 % of Dose and the “% of Dose … 15 min” value is recorded as 1.01 % of Dose.

Source of the values: patent US4638051A, “Brain imaging radiopharmaceuticals” (The Johns Hopkins University, priority 1985, dated 1987).
